Assay results from patent publication US11286268B1, “EIF4E-inhibiting compounds and methods” (EFFECTOR THERAPEUTICS, INC., priority 2019, dated 2022).
pIC50: −log10 of the molar value. Read-outs that look alike come from different tables or passages of the source.

Experiments:
recombinant eIF4E = recombinant eIF4E (Homo sapiens (Human), UniProt P06730); assay: Fluorescence polarization competition assay for eIF4E binding potency
In short: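 Competition of test compound against 20 nM EDA-m^7GDP-ATTO-550 for 75 nM recombinant eIF4E, pre-incubated 5 min, in 20 mM Tris pH 7.5, 100 mM NaCl, 1 mM DTT, 0.02% Tween-20, 1% DMSO. Equilibrated 30 min at room temperature, dark; fluorescence polarization read. IC50 from 8-point, 3-fold dilution series.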

MDA-MB-361 cells = assay: Cell proliferation assay (CELLTITER-GLO); type: cell-based; details: Homo sapiens, 144 h, 6 days of treatment; for pIC50: CELLTITER-GLO, % of DMSO control
Description: MDA-MB-361 cells were maintained in DMEM supplemented with 10% FBS and 1× penicillin/streptomycin solution at […] in a CO2 incubator. For cell proliferation assays, exponentially growing cells were seeded at 2,000 cells per well in 96-well flat bottom white polystyrene plates (ThermoFisher) and cultured overnight. The following day, compound was added in a 9 point 3-fold dilution series starting from a top concentration of 1 or 10 μM (as indicated) together with a DMSO control. The final DMSO concentration in samples was 0.1%.
Cells were incubated for up to 6 […] at 37° C. in a CO2 incubator. Baseline viability of untreated cells was measured on the day of treatment and proliferation was measured after 6 […] of treatment using CELLTITER-GLO® reagent from Promega (Madison, Wis.) according to the manufacturer's instructions. Response to compound was calculated relative to the DMSO control (% of control) using the formula, % of control (DMSO)=[(CTGcells+inhibitor)/(CTGDMSO control)]×100. Data were plotted using Prism (GraphPad software), and IC50 and Emax values were calculated from a 4 parameter, variable slope non-linear regression model. Results are shown below and in FIGS. 1-3.

[1] = fluorescence polarization competition, 75 nM recombinant eIF4E, 20 nM EDA-m7GDP-ATTO-550, IC50 class, read-out: elF4E FP
[2] = inhibition of eIF4E/EDA-m7GDP-ATTO-550 binding by 50%, Table 4B calculated values, read-out: IC50

Sequence of recombinant eIF4E (P06730 whole entry): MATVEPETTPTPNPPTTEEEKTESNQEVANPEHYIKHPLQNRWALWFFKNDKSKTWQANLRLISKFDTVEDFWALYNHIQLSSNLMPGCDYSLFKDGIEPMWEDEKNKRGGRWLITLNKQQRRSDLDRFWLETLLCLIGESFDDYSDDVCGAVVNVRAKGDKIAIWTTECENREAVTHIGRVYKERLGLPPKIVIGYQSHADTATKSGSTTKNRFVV

pIC50 (recombinant eIF4E; [1])	pIC50 (recombinant eIF4E; [2])	pIC50 (MDA-MB-361 cells)	SMILES	Emax (MDA-MB-361 cells; 4 parameter non-linear regression)
> 7.30	8.25	8.42	Cc1cc(-c2cc(Cl)ccc2OCCn2c(C)nc3cc(C(F)(F)F)c(N4CCN(C)CC4)c(C#N)c3c2=O)c2scc(C(=O)O)c2n1 [compound 634, 7-(5-chloro-2-(2-(5-cyano-2-methyl-6-(4-methylpiperazin-1-yl)-4-oxo-7-(trifluoromethyl)quinazolin-3(4H)-yl)ethoxy)phenyl)-5-methylthieno[3,2-b]pyridine-3-carboxylic acid]	
> 7.30	7.72	6.44	Cc1nc2cnc(N(C)C3CCN(CC(C)(F)F)CC3)c(C#N)c2c(=O)n1CC#Cc1ccc(Cl)cc1-c1ccnc2c(C(=O)O)csc12 [compound 1141, 7-(5-chloro-2-(3-(5-cyano-6-((1-(2,2-difluoropropyl)piperidin-4-yl)(methyl)amino)-2-methyl-4-oxopyrido[3,4-d]pyrimidin-3(4H)-yl)prop-1-yn-1-yl)phenyl)thieno[3,2-b]pyridine-3-carboxylic acid]	
> 7.30	7.91	7.33	Cc1nc2cnc(N(C)C3CCN(C4CC(F)(F)C4)CC3)c(C#N)c2c(=O)n1CC#Cc1ccc(Cl)cc1-c1ccnc2c(C(=O)NS(C)(=O)=O)csc12 [compound 1188, 7-(5-chloro-2-(3-(5-cyano-6-((1-(3,3-difluorocyclobutyl)piperidin-4-yl)(methyl)amino)-2-methyl-4-oxopyrido[3,4-d]pyrimidin-3(4H)-yl)prop-1-yn-1-yl)phenyl)-N-(methylsulfonyl)thieno[3,2-b]pyridine-3-carboxamide]	90.2%
